Measurements as given in US20080280952A1 (priority 2004, published 2008).

Target: T1, human cannabinoid CB2 receptor (Homo sapiens, UniProt P34972)
T1 construct: expressed in transfected cells; host or cells: Saccharomyces cerevisiae strain MMY23 (cassette integrated at the ura3 locus, GPD promoter)
Experiment: Cannabinoid CB2 receptor agonist activity, yeast reporter assay
Type: cell-based
Details: for Emax: read-out: efficacy (Emax) at the cloned human cannabinoid CB2 receptor
Experimental: The cannabinoid CB2 receptor agonist activity of the compounds of formula (I) was determined in accordance with the following experimental method.
Yeast (Saccharomyces cerevisiae) cells expressing the human cannabinoid CB2 receptor were generated by integration of an expression cassette into the ura3 chromosomal locus of yeast strain MMY23. This cassette consisted of DNA sequence encoding the human CB2 receptor flanked by the yeast GPD promoter to the 5′ end of CB2 and a yeast transcriptional terminator sequence to the 3′ end of CB2. MMY23 expresses a yeast/mammalian chimeric G-protein alpha subunit in which the C-terminal 5 amino acids of Gpa1 are replaced with the C-terminal 5 amino acids of human Gαi3 (as described in Brown et al. (2000), Yeast 16:11-22).
Agonists were prepared as 10 mM stocks in DMSO. […] Agonist solutions in DMSO (1% final assay volume) were transferred into black, clear bottom, microtitre plates from NUNC (96- or 384-well). Cells were suspended at a density of 0.2 OD600/ml in SC media lacking histidine, uracil, tryptophan, adenine and leucine and supplemented with 10 mM 3-aminotriazole, 0.1M sodium phosphate pH 7.0, and […] fluorescein di-β-D-glucopyranoside (FDGlu). […] Fluorescence was plotted against compound concentration and iteratively curve fitted using a four parameter fit to generate a concentration effect value. Efficacy (Emax) was calculated from the equation
Equieffective molar ratio (EMR) values were calculated from the equation

T1 sequence (P34972 whole entry): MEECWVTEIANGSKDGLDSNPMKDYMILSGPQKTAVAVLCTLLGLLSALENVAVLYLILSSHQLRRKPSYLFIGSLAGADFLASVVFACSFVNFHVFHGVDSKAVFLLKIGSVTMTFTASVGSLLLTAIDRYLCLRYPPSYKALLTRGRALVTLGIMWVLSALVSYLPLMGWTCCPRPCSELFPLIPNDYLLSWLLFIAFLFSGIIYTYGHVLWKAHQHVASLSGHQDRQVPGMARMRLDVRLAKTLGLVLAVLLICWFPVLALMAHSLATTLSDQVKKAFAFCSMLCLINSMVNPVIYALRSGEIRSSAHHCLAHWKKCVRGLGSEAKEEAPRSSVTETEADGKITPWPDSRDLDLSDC

Structure (SMILES) | EC50 [nM] | Emax [%]
O=C(NCC1CCOCC1)c1cnc(Nc2cccc(F)c2)cc1C1CCCC1 [Example 15, 4-Cyclopentyl-6-(3-fluoro-phenylamino)-N-(tetrahydro-pyran-4-ylmethyl)-nicotinamide] | 300 to 1000 | > 50
N#Cc1cccc(Nc2cc(C3CCCC3)c(C(=O)NCC3CCOCC3)cn2)c1 [Example 16, 6-(3-Cyano-phenylamino)-4-cyclopentyl-N-(tetrahydro-pyran-4-ylmethyl)-nicotinamide] | 300 to 1000 | > 50
Cc1cccc(Nc2cc(C3CCCC3)c(C(=O)NCC3CCOCC3)cn2)c1 [Example 17, Methanesulphonic acid,compound with 4-cyclopentyl-N-(tetrahydro-pyran-4-ylmethyl)-6-m-tolylamino-nicotinamide] | 300 to 1000 | > 50
O=C(NCC1CCOCC1)c1cnc(Nc2cccc(C(F)(F)F)c2F)cc1C1CC1 [Example 20, 4-Cyclopropyl-6-(2-fluoro-3-trifluoromethyl-phenylamino)-N-(tetrahydro-pyran-4-ylmethyl)-nicotinamide] | 300 to 1000 | > 50
O=C(NCC1CCOCC1)c1cnc(Nc2ccc(F)c(Cl)c2)cc1C1CC1 [Example 21, 6-(3-Chloro-4-fluoro-phenylamino)-4-cyclopropyl-N-(tetrahydro-pyran-4-ylmethyl)-nicotinamide] | 300 to 1000 | > 50
O=C(NCC1CCOCC1)c1cnc(Nc2ccc(F)cc2Cl)cc1C1CCCC1 [Example 22, 6-(2-Chloro-4-fluoro-phenylamino)-4-cyclopentyl-N-(tetrahydro-pyran-4-ylmethyl)-nicotinamide] | 300 to 1000 | > 50
Cc1cc(Cl)ccc1Nc1cc(C2CCCC2)c(C(=O)NCC2CCOCC2)cn1 [Example 23, 6-(4-Chloro-2-methyl-phenylamino)-4-cyclopentyl-N-(tetrahydro-pyran-4-ylmethyl)-nicotinamide] | 300 to 1000 | > 50
O=C(NCC1CCOCC1)c1cnc(Nc2ccc(Cl)cc2F)cc1C1CCCC1 [Example 24, 6-(4-Chloro-2-fluoro-phenylamino)-4-cyclopentyl-N-(tetrahydro-pyran-4-ylmethyl)-nicotinamide] | 300 to 1000 | > 50
O=C(NCC1CCOCC1)c1cnc(Nc2cccc(Cl)c2Cl)cc1C1CCCC1 [Example 25, 4-Cyclopentyl-6-(2,3-dichloro-phenylamino)-N-(tetrahydro-pyran-4-ylmethyl)-nicotinamide] | 300 to 1000 | > 50
COc1cccc(Nc2cc(C3CCCC3)c(C(=O)NCC3CCOCC3)cn2)c1 [Example 26, 4-Cyclopentyl-6-(3-methoxy-phenylamino)-N-(tetrahydro-pyran-4-ylmethyl)-nicotinamide] | 300 to 1000 | > 50
N#Cc1ccc(Nc2cc(C3CCCC3)c(C(=O)NCC3CCOCC3)cn2)cc1 [Example 27, 6-(4-Cyano-phenylamino)-4-cyclopentyl-N-(tetrahydro-pyran-4-ylmethyl)-nicotinamide] | 300 to 1000 | > 50
O=C(NCC1CCOCC1)c1cnc(Nc2ccc(Br)c(Cl)c2)cc1C1CC1 [Example 91, 6-(4-Bromo-3-chloro-phenylamino)-4-cyclopropyl-N-(tetrahydro-pyran-4-ylmethyl)-nicotinamide] | 300 to 1000 | > 50
O=C(NCC1CCOCC1)c1cnc(Nc2ccc(C(F)(F)F)c(F)c2)cc1C1CC1 [Example 92, 4-Cyclopropyl-6-(3-fluoro-4-trifluoromethyl-phenylamino)-N-(tetrahydro-pyran-4-ylmethyl)-nicotinamide] | 300 to 1000 | > 50
O=C(NCC1CCOCC1)c1cnc(Nc2ccc(F)c(C(F)(F)F)c2)cc1C1CC1 [Example 93, 4-Cyclopropyl-6-(4-fluoro-3-trifluoromethyl-phenylamino)-N-(tetrahydro-pyran-4-ylmethyl)-nicotinamide] | 300 to 1000 | > 50
O=C(NCC1CCOCC1)c1cnc(Nc2ccc(Br)cc2F)cc1C1CC1 [Example 94, 6-(4-Bromo-2-fluoro-phenylamino)-4-cyclopropyl-N-(tetrahydro-pyran-4-ylmethyl)-nicotinamide] | 300 to 1000 | > 50
Cc1cc(Cl)ccc1Nc1cc(C2CC2)c(C(=O)NCC2CCOCC2)cn1 [Example 95, 6-(4-Chloro-2-methyl-phenylamino)-4-cyclopropyl-N-(tetrahydro-pyran-4-ylmethyl)-nicotinamide] | 300 to 1000 | > 50
O=C(NCC1CCOCC1)c1cnc(Nc2ccc(OC(F)(F)F)cc2Br)cc1C1CC1 [Example 96, 6-(2-Bromo-4-trifluoromethoxy-phenylamino)-4-cyclopropyl-N-(tetrahydro-pyran-4-ylmethyl)-nicotinamide] | 300 to 1000 | > 50
O=C(NCC1CCOCC1)c1cnc(Nc2ccc(Br)c(F)c2)cc1C1CC1 [Example 97, 6-(4-Bromo-3-fluoro-phenylamino)-4-cyclopropyl-N-(tetrahydro-pyran-4-ylmethyl)-nicotinamide] | 300 to 1000 | > 50
O=C(NCC1CCOCC1)c1cnc(Nc2ccc(Cl)cc2F)cc1C1CC1 [Example 98, 6-(4-Chloro-2-fluoro-phenylamino)-4-cyclopropyl-N-(tetrahydro-pyran-4-ylmethyl)-nicotinamide] | 300 to 1000 | > 50
O=C(NCC1CCCC1)c1cnc(Nc2ccc(F)cc2F)cc1C1CC1 [Example 99, N-Cyclopentylmethyl-4-cyclopropyl-6-(2,4-difluoro-phenylamino)-nicotinamide] | 300 to 1000 | > 50
O=C(NCC1CCOCC1)c1cnc(Nc2cc(Cl)ccc2F)cc1C1CC1 [Example 101, 6-(5-Chloro-2-fluoro-phenylamino)-4-cyclopropyl-N-(tetrahydro-pyran-4-ylmethyl)-nicotinamide] | 300 to 1000 | > 50
O=C(NCC1CCOCC1)c1cnc(Nc2cc(C(F)(F)F)ccc2F)cc1C1CC1 [Example 102, 4-Cyclopropyl-6-(2-fluoro-5-trifluoromethyl-phenylamino)-N-(tetrahydro-pyran-4-ylmethyl)-nicotinamide] | 300 to 1000 | > 50
O=C(NCC1CCOCC1)c1cnc(Nc2cc(C(F)(F)F)ccc2Cl)cc1C1CC1 [Example 103, 6-(2-Chloro-5-trifluoromethyl-phenylamino)-4-cyclopropyl-N-(tetrahydro-pyran-4-ylmethyl)-nicotinamide] | 300 to 1000 | > 50
O=C(NCC1CCOCC1)c1cnc(Nc2cc(C(F)(F)F)ccc2Br)cc1C1CC1 [Example 104, 6-(2-Bromo-5-trifluoromethyl-phenylamino)-4-cyclopropyl-N-(tetrahydro-pyran-4-ylmethyl)-nicotinamide] | 300 to 1000 | > 50
Cc1ccc(Cl)cc1Nc1cc(C2CC2)c(C(=O)NCC2CCOCC2)cn1 [Example 105, 6-(5-Chloro-2-methyl-phenylamino)-4-cyclopropyl-N-(tetrahydro-pyran-4-ylmethyl)-nicotinamide] | 300 to 1000 | > 50
Cc1cc(C#N)ccc1Nc1cc(C2CC2)c(C(=O)NCC2CCOCC2)cn1 [Example 106, 6-(4-Cyano-2-methyl-phenylamino)-4-cyclopropyl-N-(tetrahydro-pyran-4-ylmethyl)-nicotinamide] | 300 to 1000 | > 50
